From US6855490B2, “Method for attaching biological molecules to a glass surface” (Medical Discovery Partners LLC, priority 1999, dated 2005)
pKd: −log10 of the molar value. Primed or numbered codes have the meaning given here. FITC′ = fluorescein group attached to the epsilon side chain of lysine

Legend:
[1] = system: 1D5 monoclonal antibody; experiment: Peptide ELISA of synthetic ER peptides; type: binding, mouse; details: compared among ER peptides 3, 4 and 6
Excerpt: (§1) Three synthetic peptides (designated as ER peptide 3, ER peptide 4, and ER peptide 6), that are representative of above consensus phage sequence, were synthesized (by SynPep Labs, Dublin, Calif. and Bachem Labs, King of Prussia, Pa.) and tested for specificity/affinity to 1D5 monoclonal antibody.

[2] = biological target: 1D5 monoclonal antibody; experiment: Fluorescence polarization assay of synthetic ER peptides; set-up: species or system mouse; details: binding to 1D5 monoclonal antibody, FITC-labelled peptide
Description: Large quantities of each of the selected phage are grown and nucleic acid extracted for sequence analysis. Based on the nucleotide sequence coding for the inserted ten-mer peptide, corresponding peptides are synthesized. Numerous commercial vendors provide peptide synthesis capabilities. The binding affinity of each of the selected peptide sequences for their antibodies is determined using Scatchard analysis. The percentage of antibodies binding to the peptide can be ascertained using fluorescence polarization analysis, provided that the peptide is fluorescently labeled. The specificity of binding for each peptide antigen mimic is tested using irrelevant, isotype-matched antibodies.
as §1

Ac-DFQCPYVECVVNAPGGK(FITC)GK-CONH2 (Ac-DFQCPYVECVVNAPGGK(FITC′)GK-NH2; cysteine pairing not given here) [ER peptide 3]
Peptide ELISA signal [1]: highest signal | pKd [2]: ~9.00
